This passage reports cell viability results from patent publication US12409206B2, “Use of cyclosporine analogues for treating fibrosis” (Hepion Pharmaceuticals, Inc., priority 2020, dated 2025).

The test system of the data set is Human cardiac fibroblasts. Description: Cell viability analysis, cardiac fibroblast culture. It counts as cell-based. As to conditions: end of treatment (6 days). The method, then:
Human cardiac fibroblasts (Lonza Bioscience, Cat. #CC-2903) were cultured in 96-well plates. Treatments were applied in triplicate wells (applied 100 ul treatments per well) for 6 days. Cells were near confluence at the start of treatments. […] Spent culture medium collected at the end of treatments was assayed for procollagen and fibronectin by enzyme-linked immunosorbent assays (ELISA) (Procollagen ELISA antibody pair (ab216064) and fibronectin ELISA antibody pair (ab222262) from Abcam). Procollagen and fibronectin were not detected in medium not applied to cells. Procollagen and fibronectin levels in the medium are represented by means±SD (bars) from 3 replicate wells (open circles).

For `CC[C@@H]1NC(=O)[C@H]([C@H](O)[C@H](C)CCCCCCNC(C)=O)N(C)C(=O)[C@H](C(C)C)N(C)C(=O)[C@H](CC(C)C)N(C)C(=O)[C@H](CC(C)C)N(C)C(=O)[C@@H](C)NC(=O)[C@H](C)NC(=O)[C@H](CC(C)C)N(C)C(=O)[C@H](C(C)C)NC(=O)[C@H](CC(C)C)N(C)C(=O)[C@@H](C)N(C)C1=O` [CRV431], the cell viability result was “none of the CRV431 treatments affected cell viability”.
